In ChEMBL document CHEMBL5257017, “Small Molecule CXCR3 Antagonists” (J Med Chem, 2016):
Values after ≈ are worked out from the molar mass of the structure shown. Each block holds one compound with its values, some of them ahead of it.

How the values were obtained:
[1] = target: T1, C-X-C chemokine receptor type 3 (Homo sapiens, UniProt P49682); assay: Antagonist activity at CXCR3 (unknown origin) assessed as reduction in CXCL10 induced calcium flux by flow cytometry
T1 sequence (P49682 whole entry): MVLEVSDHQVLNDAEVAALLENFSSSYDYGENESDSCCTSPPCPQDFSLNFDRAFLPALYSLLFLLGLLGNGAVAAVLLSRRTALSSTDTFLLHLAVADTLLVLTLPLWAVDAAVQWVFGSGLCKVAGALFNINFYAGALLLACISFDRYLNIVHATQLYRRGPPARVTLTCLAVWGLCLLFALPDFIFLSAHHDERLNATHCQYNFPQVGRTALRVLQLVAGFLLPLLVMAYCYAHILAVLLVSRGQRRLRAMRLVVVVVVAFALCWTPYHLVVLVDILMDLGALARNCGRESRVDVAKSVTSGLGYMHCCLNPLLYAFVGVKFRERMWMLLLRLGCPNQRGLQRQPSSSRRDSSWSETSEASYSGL

[2] = Clearance in rat at 10 mg/kg, po or 0.2 mg/kg, iv; format: ADME, organism-based; conditions: in vivo
[3] = Volume of distribution in mouse at 10 mg/kg. po or 0.2 mg/kg, iv; format: ADME, organism-based; conditions: in vivo
[4] = target: T1, C-X-C chemokine receptor type 3; assay: Antagonist activity at CXCR3 (unknown origin) assessed as reduction in CXCL10 induced calcium flux by [35S]GTPgammaS binding assay
[5] = target: T1, C-X-C chemokine receptor type 3; assay: Antagonist activity at CXCR3 (unknown origin) assessed as reduction in CXCL11 induced calcium flux by FLIPR method
[6] = target: T1, C-X-C chemokine receptor type 3; assay: Antagonist activity at CXCR3 (unknown origin) assessed as reduction in CXCL10 induced calcium flux by FLIPR method
[7] = target: T1, C-X-C chemokine receptor type 3; assay: Displacement of [125I]-CXCL10 from CXCR3 in human PBMC cells; format: cell-based
[8] = AUC in rat at 10 mg/kg, po; format: ADME, organism-based; parameters: dose 10 mg/kg, route po; conditions: in vivo
[9] = AUC in mouse at 10 mg/kg, po; format: ADME, organism-based; parameters: dose 10 mg/kg, route po; conditions: in vivo
[10] = target: T1, C-X-C chemokine receptor type 3; assay: Displacement of [125I]-CXCL10 from CXCR3 in human PBMC cells by scintillation proximity assay; format: cell-based
[11] = Half life in rat at 2.0 mg/kg, po or 0.5 mg/kg, iv; format: ADME, organism-based; conditions: in vivo
[12] = target: T1, C-X-C chemokine receptor type 3; assay: Antagonist activity at CXCR3 (unknown origin) assessed as reduction in CXCL11 induced calcium flux by flow cytometry
[13] = target: T1, C-X-C chemokine receptor type 3; assay: Antagonist activity at human CXCR3 assessed as reduction in CXCL11 induced calcium flux by [35S]GTPgammaS binding assay
[14] = Lipophilicity, logD of compound at pH 7.4; format: physicochemical; conditions: buffer
[15] = Intrinsic clearance in mouse liver microsomes; format: ADME, Microsome
[16] = Oral bioavailability in mouse at 10 mg/kg; format: ADME, organism-based; conditions: in vivo
[17] = Clearance in rat at 10 mg/kg, po or 5 mg/kg, iv; format: ADME, organism-based; conditions: in vivo
[18] = Half life in mouse at 10 mg/kg, po or 5 mg/kg, iv; format: ADME, organism-based; conditions: in vivo
[19] = Clearance in mouse at 30 mg/kg, po; format: ADME, organism-based; conditions: in vivo
[20] = Oral bioavailability in mouse at 30 mg/kg; format: ADME, organism-based; conditions: in vivo
[21] = target: T2, C-X-C chemokine receptor type 3 (Mus musculus, UniProt O88410); assay: […] of CXCR3 receptor internalization in mouse whole blood in presence of CXCl10 by flow cytometry; format: tissue-based
T2 sequence (O88410 whole entry): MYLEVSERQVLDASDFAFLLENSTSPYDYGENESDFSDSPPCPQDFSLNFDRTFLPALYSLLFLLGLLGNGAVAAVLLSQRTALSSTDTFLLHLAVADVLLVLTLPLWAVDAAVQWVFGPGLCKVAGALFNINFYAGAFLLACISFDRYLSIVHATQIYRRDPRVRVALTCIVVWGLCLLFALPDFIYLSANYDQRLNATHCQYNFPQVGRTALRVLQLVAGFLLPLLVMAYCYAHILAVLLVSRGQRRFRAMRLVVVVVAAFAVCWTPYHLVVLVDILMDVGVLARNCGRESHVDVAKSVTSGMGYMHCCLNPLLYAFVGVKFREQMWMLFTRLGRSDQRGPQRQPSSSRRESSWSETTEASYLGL

[22] = target: T1, C-X-C chemokine receptor type 3; assay: Antagonist activity at CXCR3 (unknown origin)
[23] = target: T3, C-X-C chemokine receptor type 2 (Homo sapiens, UniProt P25025); assay: Antagonist activity at CXCR2 (unknown origin)
T3 sequence (P25025 whole entry): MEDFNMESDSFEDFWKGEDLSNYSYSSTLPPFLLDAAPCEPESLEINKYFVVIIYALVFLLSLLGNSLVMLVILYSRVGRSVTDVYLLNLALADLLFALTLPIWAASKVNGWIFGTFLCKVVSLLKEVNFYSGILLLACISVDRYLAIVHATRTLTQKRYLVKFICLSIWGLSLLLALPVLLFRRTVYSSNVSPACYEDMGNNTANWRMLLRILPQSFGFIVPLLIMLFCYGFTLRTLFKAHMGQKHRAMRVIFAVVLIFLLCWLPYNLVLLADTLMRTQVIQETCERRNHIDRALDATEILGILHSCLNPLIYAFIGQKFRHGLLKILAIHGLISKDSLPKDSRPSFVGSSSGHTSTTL

[24] = target: C-C chemokine receptor type 4 (Homo sapiens) (UniProt P51679); assay: Antagonist activity at CCR4 (unknown origin)
[25] = target: C-C chemokine receptor type 6 (Homo sapiens) (UniProt P51684); assay: Antagonist activity at CCR6 (unknown origin)
[26] = target: C-C chemokine receptor type 7 (Homo sapiens) (UniProt P32248); assay: Antagonist activity at CCR7 (unknown origin)
[27] = target: C-X-C chemokine receptor type 3 (Homo sapiens) (UniProt P49682); assay: Inhibition of CXCR3 at 20 to 50 uM relative to control
hERG (KCNH2) [28] = target: T4, hERG (KCNH2) (Homo sapiens, UniProt Q12809); assay: Inhibition of hERG at 3 uM relative to control; format: toxicity
[29] = Solubility of compound; format: physicochemical
[30] = target: Voltage-gated inwardly rectifying potassium channel KCNH2 (Homo sapiens, UniProt Q12809); assay: Inhibition of hERG; format: toxicity
hERG (KCNH2) [31] = target: T4, hERG (KCNH2); assay: Inhibition of hERG at 10 uM relative to control; format: toxicity
[32] = AUC in rat at 2 mg/kg, po; format: ADME, organism-based; parameters: dose 2 mg/kg, route po; conditions: in vivo

T4 sequence (Q12809 whole entry): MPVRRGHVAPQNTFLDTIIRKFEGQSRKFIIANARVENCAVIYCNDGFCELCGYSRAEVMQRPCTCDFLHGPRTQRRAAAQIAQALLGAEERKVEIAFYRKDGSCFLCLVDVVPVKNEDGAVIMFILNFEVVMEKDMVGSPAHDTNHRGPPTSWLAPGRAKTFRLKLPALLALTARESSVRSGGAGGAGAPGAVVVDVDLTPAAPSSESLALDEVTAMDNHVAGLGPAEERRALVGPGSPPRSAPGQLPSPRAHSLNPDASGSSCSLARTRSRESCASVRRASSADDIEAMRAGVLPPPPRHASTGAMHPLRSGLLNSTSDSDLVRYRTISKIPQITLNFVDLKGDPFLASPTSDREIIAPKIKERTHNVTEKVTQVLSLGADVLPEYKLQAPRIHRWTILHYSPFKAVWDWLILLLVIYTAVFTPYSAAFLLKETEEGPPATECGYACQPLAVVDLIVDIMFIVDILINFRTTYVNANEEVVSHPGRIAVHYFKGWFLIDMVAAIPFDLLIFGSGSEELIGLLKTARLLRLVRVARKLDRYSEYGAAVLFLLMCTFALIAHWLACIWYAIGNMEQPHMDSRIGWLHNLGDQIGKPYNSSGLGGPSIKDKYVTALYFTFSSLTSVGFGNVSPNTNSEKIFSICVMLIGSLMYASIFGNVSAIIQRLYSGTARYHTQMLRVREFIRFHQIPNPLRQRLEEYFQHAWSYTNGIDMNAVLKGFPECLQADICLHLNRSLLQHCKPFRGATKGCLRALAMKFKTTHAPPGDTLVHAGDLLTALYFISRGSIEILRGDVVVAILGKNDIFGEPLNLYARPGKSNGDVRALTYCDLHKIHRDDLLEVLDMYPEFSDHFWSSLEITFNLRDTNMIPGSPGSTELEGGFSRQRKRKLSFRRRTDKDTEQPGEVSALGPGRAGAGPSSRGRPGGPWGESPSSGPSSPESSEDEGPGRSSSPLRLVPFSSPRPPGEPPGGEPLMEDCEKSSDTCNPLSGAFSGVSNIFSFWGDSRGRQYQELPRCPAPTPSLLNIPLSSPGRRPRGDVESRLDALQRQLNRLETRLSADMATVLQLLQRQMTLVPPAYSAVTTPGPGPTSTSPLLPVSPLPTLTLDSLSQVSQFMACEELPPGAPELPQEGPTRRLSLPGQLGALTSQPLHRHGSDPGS
C-C chemokine receptor type 4 (Homo sapiens), sequence (P51679 whole entry, looked up): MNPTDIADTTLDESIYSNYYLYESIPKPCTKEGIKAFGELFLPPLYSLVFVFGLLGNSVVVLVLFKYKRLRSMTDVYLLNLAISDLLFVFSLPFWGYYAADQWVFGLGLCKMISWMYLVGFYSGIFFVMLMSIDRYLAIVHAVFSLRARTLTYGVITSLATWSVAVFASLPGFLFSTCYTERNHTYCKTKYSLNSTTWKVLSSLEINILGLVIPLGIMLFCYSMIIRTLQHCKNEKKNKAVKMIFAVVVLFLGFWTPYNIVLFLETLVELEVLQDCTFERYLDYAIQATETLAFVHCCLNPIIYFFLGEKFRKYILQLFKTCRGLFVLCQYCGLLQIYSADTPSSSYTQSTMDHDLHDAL
Voltage-gated inwardly rectifying potassium channel KCNH2, sequence (Q12809 whole entry): as the sequence (Q12809 whole entry) above
C-C chemokine receptor type 7 (Homo sapiens), sequence (P32248 whole entry, looked up): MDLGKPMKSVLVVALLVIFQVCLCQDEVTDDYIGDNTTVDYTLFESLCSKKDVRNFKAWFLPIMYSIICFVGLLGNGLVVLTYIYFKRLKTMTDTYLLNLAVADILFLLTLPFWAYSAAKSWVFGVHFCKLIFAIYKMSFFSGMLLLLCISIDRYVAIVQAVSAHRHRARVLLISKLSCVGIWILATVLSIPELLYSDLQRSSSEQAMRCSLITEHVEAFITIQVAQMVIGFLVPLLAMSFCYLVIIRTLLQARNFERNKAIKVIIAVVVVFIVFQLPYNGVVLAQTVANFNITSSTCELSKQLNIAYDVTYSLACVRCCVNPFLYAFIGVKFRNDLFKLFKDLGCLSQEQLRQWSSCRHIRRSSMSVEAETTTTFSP
C-C chemokine receptor type 6 (Homo sapiens), sequence (P51684 whole entry, looked up): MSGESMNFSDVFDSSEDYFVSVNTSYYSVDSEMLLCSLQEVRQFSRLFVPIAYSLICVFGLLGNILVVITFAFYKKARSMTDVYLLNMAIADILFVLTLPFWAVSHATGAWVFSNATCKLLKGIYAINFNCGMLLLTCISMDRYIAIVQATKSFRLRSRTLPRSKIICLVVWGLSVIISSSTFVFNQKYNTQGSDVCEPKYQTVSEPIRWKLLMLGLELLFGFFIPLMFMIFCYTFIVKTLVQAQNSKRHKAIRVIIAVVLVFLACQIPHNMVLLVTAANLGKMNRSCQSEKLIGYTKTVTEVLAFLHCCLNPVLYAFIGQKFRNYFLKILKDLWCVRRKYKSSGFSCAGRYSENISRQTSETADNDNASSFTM

Compound: N#Cc1ccc(S(=O)(=O)N(Cc2ccc(-c3nnn[nH]3)c(F)c2)Cc2ccccc2F)cc1
IC50 [1]: 200 nM
clearance [2]: 28.3 mL/min/kg
Vd [3]: 1 L/kg

Compound: CC(=O)Nc1cccc(/C(C)=N\NC(=O)c2ccc(CN(Cc3ccccc3)S(=O)(=O)c3ccc(Cl)cc3)cc2)c1
IC50 [1]: 501 nM
IC50 [4]: 100 nM
Ki [5]: 200 nM
Ki [6]: 6500 nM

Compound: N=C(Nc1ccc(I)cc1)NC1C2CC3CC(C2)CC1C3 (stereo not drawn)
Ki [7]: 158 nM

Compound: CCCCCCCCCC(=O)N(CCN(C)C)C(C)c1nc2ccccc2c(=O)n1-c1ccc(F)cc1 (stereo not drawn)
IC50 [5]: 398 nM

Compound: CC1(C)[C@H]2CC=C(CN3CCC(Nc4nc(-c5cc(C(F)(F)F)cc(C(F)(F)F)c5)ns4)CC3)[C@@H]1C2
Ki [13]: 251 nM
logD [14]: 5
CLH [15]: 0.016 mL/min/kg

Compound: Cc1cccc2c1n(C)c(=N)n2CC(=O)c1ccc(Cl)cc1
bioavailability [16]: 57%
clearance [17]: 95 mL/min/kg
half-life [18]: 4.9 h

Compound: CC(=O)c1nc2ccccc2n1CC(=O)c1ccc([N+](=O)[O-])cc1
IC50 [7]: 3160 nM

Compound: C[C@H]1CN(c2scnc2-c2nc3ccccc3[nH]2)CCN1C(=O)Cn1ccc2cccnc21
IC50 [21]: 398 nM

Compound: Cc1ccc(C(Nc2c(Nc3cccc(C(=O)N(C)C)c3O)c(=O)c2=O)C2(C)CCCO2)o1 (stereo not drawn)
IC50 [22]: 1.26 nM
IC50 [23]: 63.1 nM
IC50 [24]: 398 nM
IC50 [25]: 2 nM
IC50 [26]: 7.94 nM

Compound: O=C(Nc1ccccc1)N1CCCC(c2ccccc2)(C2CCN(Cc3ccc(Br)cc3)CC2)C1 (stereo not drawn)
IC50 [4]: 31.6 nM

Compound: CC[C@H](C)C[C@H](C)C[C@H](C)[C@@H](O[C@@H]1O[C@H](COC(C)=O)[C@@H](O)[C@@H](O)[C@@H]1O)[C@@H](C)/C=C(\C)[C@@H](O)[C@@H](C)/C=C(\C)[C@@H](O)[C@@H](C)/C=C(\C)C(=O)OC[C@@H](O)[C@H](O)[C@H](O)CO
IC50 [7]: 15800 nM

Compound: CCN(CC)C(=O)[C@@H]1C=C2C3C=CCc4[nH]cc(c43)C[C@H]2N(C(=O)Nc2ccccc2)C1 (stereo partly drawn)
IC50 [5]: 20 nM
IC50 [7]: 50.1 nM

Compound: Cc1ccc(C(=O)N2CCN(CC(=O)Nc3cc(-c4ccccc4)sc3C(N)=O)CC2)cc1
inhibition at 50 µM [27]: 50%

Compound: CC[C@H]1CN(c2ncc(C(N)=O)nc2C)CCN1C1CCN(Cc2ccc(Cl)nc2N)CC1
inhibition at 3 µM (hERG (KCNH2) [28]): 0%

Compound: CC(=O)N1C2C=C(CN3[C@@H]4CC[C@H]3C[C@H](NC(=O)Nc3cc(F)cc(C(F)(F)F)c3)C4)CC1CCC2
Ki [13]: 6.31 nM
solubility [29]: 40 µg/mL (≈ 78.7 µM)
logD [14]: 3.1

Compound: O=C(Cn1c(=O)[nH]c2ccccc21)N1CCN(c2ncc(Cl)cc2-c2cnc(N3CCC(O)CC3)nc2)CC1
IC50 [30]: 31600 nM

Compound: C[C@@H]1CC[C@@]2(OC1)OC1CC3C4CC=C5[C@@H](O[C@@H]6O[C@H](CO)[C@@H](O[C@H]7O[C@H](C)[C@@H](O)[C@H](O)[C@@H]7O)[C@@H](O)[C@H]6O[C@H]6O[C@@H](C)[C@@H](O)[C@H](O)[C@@H]6O)CCC[C@]5(C)C4CC[C@]3(C)C1[C@@H]2C (stereo partly drawn)
IC50 [7]: 501 nM

Compound: CCNc1nnc(-c2cnc(N3C[C@H](CC)N(C4CCN(Cc5ccc(Cl)cc5)CC4)C[C@H]3C)c(C)n2)o1
inhibition at 10 µM (hERG (KCNH2) [31]): 25%

Compound: CNc1ncc(-c2cc(C(F)(F)F)ccc2N2CCN(C(=O)Cn3nc(C)cc3C)CC2)cn1
AUC [32]: 271 ng·h/mL

More lines, now with the values ahead:

Ki [7]: 0.316 nM
AUC [8]: 0.95 µM·h
Compound: CCNC(=O)c1cnc(N2CCN(C3CCN(Cc4ccc(Cl)cc4F)CC3)[C@@H](CC)C2)c(Cl)c1

Ki [7]: 0.794 nM
AUC [9]: 5.1 µM·h
Compound: CC[C@H]1CN(c2nc(N)c(C(N)=O)nc2Cl)CCN1C1CCN(Cc2ccc(Cl)cc2)CC1

IC50 [10]: 6.31 nM
IC50 [5]: 5.01 nM
half-life [11]: 4 h
Compound: C[C@H](c1nc2ncccc2c(=O)n1-c1ccc(Cl)cc1)N(CC1CCS(=O)(=O)CC1)C(=O)Cc1ccc(F)c(C(F)(F)F)c1

IC50 [10]: 6.31 nM
Compound: C[C@H](c1nc2ncccc2c(=O)n1-c1ccc(Cl)cc1)N(CC1CCS(=O)(=O)CC1)C(=O)Cc1ccc(C(F)(F)F)c(F)c1

pIC50 [12]: 7
IC50 [5]: 63.1 nM
Compound: CCNC(=O)N1CCCN(c2ccc(C(=O)NCCc3ccc(Cl)cc3Cl)cc2NC(=O)c2cccc(Cl)c2)CC1

logD [14]: 2.9
CLint [15]: 9 µL/min/mg
CL/F [19]: 9 mL/min/kg
bioavailability [20]: 69%
Compound: CC(=O)N1C2C=C(CN3[C@@H]4CC[C@H]3C[C@H](Nc3ccc5ccc(OC(C)C)cc5n3)C4)CC1CCC2

IC50 [7]: 12.6 nM
Compound: COc1cc(CN(C[C@H]2CC[C@H](C(=O)O)CC2)[C@H]2CCc3cc(Cl)ccc32)ccc1OCCN1C(=O)CCC1=O

IC50 [5]: 2000 nM
Compound: CCNC(=O)N1CCCN(c2ccc(C(=O)NC(C)C)cc2NC(=O)c2cccc(Cl)c2)CC1

Ki [13]: 100 nM
Compound: O=C(Nc1ccc2ccccc2c1)NC1CCN(CC2=CCCCCC2)CC1

Ki [7]: 100 nM
Compound: N#Cc1ccc(CN2CCC(N3CCN(c4ncc(C(=O)NCCOc5ccccc5)cc4Cl)CC3)CC2)cc1
